According to patent US8293253B2, “Compositions for controlled delivery of pharmaceutically active compounds” (IDEXX Laboratories, Inc., priority 2004, dated 2012):

Assay: Dissolution of AMP alone in organic solvent
Type: physicochemical
Text: (§1) […] […] 1 eq. of a phosphorylated nucleotide such as adefovir can be substituted for each eq. of AMP.
as §1

SMILES: Nc1ncnc2c1ncn2[C@@H]1O[C@H](COP(=O)(O)O)[C@@H](O)[C@H]1O [AMP, Adenosine monophosphate]
- Dissolution of AMP alone in N-methyl pyrrolidone (0.5 g in 10 mL of N-methyl pyrrolidone, absence of tyrosine butyrate): will not dissolve
- Dissolution of AMP alone in glycerol formal (1 g in 10 mL of glycerol formal, absence of isoleucine butyrate): will not dissolve
